Source: ChEMBL document CHEMBL3272027, “Chemoimmunotherapy of cancer” (1977)

Legend:
Assay type in all cases: functional
P388 [1] = assay: In vivo antitumor activity against mouse P388 cells in 3PS31 test system at 25 mg/kg administered on day 1, 5 and 9 relative to control
P388 [2] = assay: In vivo antitumor activity against mouse P388 cells in 3PS31 test system at 12.5 mg/kg administered on day 1, 5 and 9 relative to control
P388 [3] = assay: In vivo antitumor activity against mouse P388 cells in 3PS31 test system at 50 mg/kg administered on day 1, 5 and 9 relative to control
P388 [4] = assay: In vivo antitumor activity against mouse P388 cells in 3PS31 test system at 75 mg/kg administered on day 1, 5 and 9 relative to control
P388 [5] = assay: In vivo antitumor activity against mouse P388 cells in 3PS31 test system at 6.25 mg/kg administered on day 1, 5 and 9 relative to control

SMILES | T/C (P388 [1]) | T/C (P388 [2]) | T/C (P388 [3]) | T/C (P388 [4]) | T/C (P388 [5])
O=C(O)c1cc([N+](=O)[O-])cc([N+](=O)[O-])c1NCCSCCCl | 111% | 102% | 106% |  | 
O=[N+]([O-])c1cc([N+](=O)[O-])c(NCCSCCCl)c(S(=O)(=O)O)c1 | 124% | 111% | 124% | 118% | 
O=[N+]([O-])c1cc([N+](=O)[O-])c(NCCCSCCCl)c(S(=O)(=O)O)c1 | 136% | 132% | 128% |  | 111%
